Source: US9770421B2, “Uses for idebenone and related benzoquinones in metabolic disorders and other PPAR α/γ related diseases and conditions” (INDANIO BIOSCIENCE INC., priority 2013, dated 2017)
Entries after “also recorded” stand apart in the source; their conditions may differ.

How the values were obtained:
PPARδ/β = target: T1, PPARδ/β (Homo sapiens, UniProt Q03181); assay: PPARδ/β ligand trap transgenic zebrafish line; conditions: in vivo
T1 construct: expressed in transfected cells; host or cells: transgenic zebrafish embryos (ligand-trap line)
T1 sequence (Q03181 211-439 limits assumed): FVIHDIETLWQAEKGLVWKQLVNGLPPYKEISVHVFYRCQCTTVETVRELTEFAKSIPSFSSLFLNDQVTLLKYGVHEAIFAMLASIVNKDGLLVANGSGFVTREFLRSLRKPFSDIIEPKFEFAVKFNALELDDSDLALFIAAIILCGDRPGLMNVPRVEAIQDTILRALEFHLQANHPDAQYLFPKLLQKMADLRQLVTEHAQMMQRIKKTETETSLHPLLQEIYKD
Experimental: To test for specificity, idebenone and CoQ10 were also tested on PPARα, and PPARδ/β receptors in vivo and in vitro. […] The same relative responses were obtained with HEK 293 cells grown in culture and transfected with PPAR expression vectors and luciferase reporters (FIG. 5).

[1] = tested on: diet-induced obese C57BL/6J male mice; assay: Diet-induced-obese (DIO) mouse study; type: in vivo
Experimental: Mouse-based biomedical research was performed by the Jackson Laboratory to test the efficacy of idebenone in a diet-induced-obese (DIO) mouse model and approved by the Institutional Animal Care and Use Committee (IACUC). To test the efficacy of idebenone in a db/db mouse model experiments were performed at the Univerity of Torotno and were approved by the Animal Care Committee at the University of Toronto.
DIO study: Forty four (44) diet-induced obese C57BL/6J male mice (started on high fat diet at the age of 6 weeks) were used at 16 wks of age. The mice were ear notched for identification using the standard mouse ID format. Mice were housed at a density of 3-4 per cage in polycarbonate cages, which were both individually and positively ventilated. Bed-o'Cobs® corn cob bedding was provided and was changed every two weeks or as needed.
The animal room was lighted entirely with artificial fluorescent lighting on controlled 12 hr light/dark cycle (6 a.m. to 6 p.m. light). The normal temperature and relative humidity ranges in the animal rooms were maintained at 22±4° C. and 50±15%, respectively. The animal room was set for 15 air exchanges per hour. Filtered tap water acidified to a pH of 2.5 to 3.1 was provided ad libitum. High fat diet (60 kcal %) was provided ad libitum. Following a 2 week acclimation, 32 mice were chosen based on desired body weight range. Remaining mice were euthanized. Mice were randomized by body weight into four treatment groups (n=8) by body weight and non-fasting blood glucose taken three days prior to the start of dosing. Body weights, non-fasting blood glucose, and insulin were measured before dosing. Dosing occurred for 5 days. Fasting blood glucose and insulin were measured at the end of dosing (mice were fasted overnight on day 5, and insulin and blood glucose was measured on day 6). Mice were euthanized by CO2 euthanasia. An aliquot of whole blood was processed to measure insulin.

[2] = target: T2, human PPARγ LBD (residues 206-477) (Homo sapiens, UniProt P37231); assay: Stargazer thermostabilization assay; type: binding; conditions: 0.2 mg/ml PPARγ LBD, heated to 80° C.
T2 construct: human PPARγ LBD (residues 206-477), expressed in pRSET; His tag (implied by Ni-NTA purification and the pRSET vector); made in house; host or cells: E. coli BL21 codon plus (pRSET)
T2 sequence (P37231 206-477 isoform P37231-2): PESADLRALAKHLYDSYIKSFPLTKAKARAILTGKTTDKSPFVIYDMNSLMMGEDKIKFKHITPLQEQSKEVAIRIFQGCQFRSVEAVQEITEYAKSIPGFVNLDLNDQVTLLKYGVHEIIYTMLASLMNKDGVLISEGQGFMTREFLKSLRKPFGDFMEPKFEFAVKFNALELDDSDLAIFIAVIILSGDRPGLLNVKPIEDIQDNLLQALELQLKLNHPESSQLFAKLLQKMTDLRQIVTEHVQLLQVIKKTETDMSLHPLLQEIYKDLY

PPARα LBD = target: T3, PPARα LBD (Homo sapiens, UniProt Q07869); assay: In vitro co-purification with His-tagged PPARα LBD, MS; type: binding; conditions: incubated with 10 μM idebenone
T3 construct: His-tagged PPARα, δ and γ LBDs were expressed in bacteria, Ni-NTA purified; His; made in house; host or cells: bacteria (E. coli)
T3 sequence (Q07869 239-466 limits assumed): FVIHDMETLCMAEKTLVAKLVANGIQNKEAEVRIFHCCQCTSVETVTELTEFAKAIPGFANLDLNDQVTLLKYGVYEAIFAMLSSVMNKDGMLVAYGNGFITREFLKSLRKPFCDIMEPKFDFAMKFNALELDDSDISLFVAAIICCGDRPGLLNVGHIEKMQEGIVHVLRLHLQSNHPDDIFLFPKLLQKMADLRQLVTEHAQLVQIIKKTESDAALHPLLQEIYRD
Experimental: To see if idebenone can bind to directly to other PPAR LBDs, His-tagged PPARα, δ and γ LBDs were expressed in bacteria, Ni-NTA purified and incubated with 10 μM idebenone. After several washes in a 10 kDa cut off Amicon centrifuge filter (Millipore), lipids were extracted and analyzed by MS.

[3] = gavage twice daily for 5 days, 50 mpk idebenone, 30 mpk rosiglitazone

For COC1=C(OC)C(=O)C(CCCCCCCCCCO)=C(C)C1=O [Idebenone, 2-(10-hydroxydecyl)-5,6-dimethoxy-3-methyl-2,5-cyclohexadiene-1,4-dione], the “Response of PPARδ/β transgenic line” value (PPARδ/β) was “no response”, the “Insulin resistance (HOMA-IR)” value ([1]; 50 mpk idebenone twice daily for 5 days) was “clear improvement” and the Blood glucose levels [1, 3] was “trend towards lowered blood glucose levels; also recorded: lowers”. The Fasting insulin levels [1, 3] was “reduction in fasting insulin levels; also recorded: lowers”, the “Shift of thermal denaturation transition temperature” value [2] was 5.5 °C and the “Binding to PPARα LBD (co-purification, MS)” value (PPARα LBD) was “strong binding”.
